Laboratory results from ChEMBL document CHEMBL6109086, “Discovery and biological evaluation of hederagenin derivatives as non-substrate inhibitors of P-glycoprotein-mediated multidrug resistance” (Eur J Med Chem, 2025).
Calls of active or inactive are those of the source. No cut-off for these calls is given here.

Tests used:
[1] = Sensitization of vincristine -induced cytotoxicity against human KBV cells assessed as fold change in vincristine IC50 at 2.5 uM incubated for 72 hrs by MTT assay relative to vincristine alone; format: functional
[2] = Sensitization of paclitaxel-induced cytotoxicity against human KBV cells assessed as fold change in paclitaxel IC50 at 10 uM incubated for 72 hrs by MTT assay relative to paclitaxel alone; format: functional
[3] = Sensitization of paclitaxel-induced cytotoxicity against human KBV cells assessed as fold change in paclitaxel IC50 at 2.5 uM incubated for 72 hrs by MTT assay relative to paclitaxel alone; format: functional
[4] = Sensitization of paclitaxel-induced cytotoxicity against human KBV cells assessed as fold change in paclitaxel IC50 at 5 uM incubated for 72 hrs by MTT assay relative to paclitaxel alone; format: functional
[5] = Sensitization of vincristine -induced cytotoxicity against human KBV cells assessed as fold change in vincristine IC50 at 10 uM incubated for 72 hrs by MTT assay relative to vincristine alone; format: functional
[6] = Sensitization of vincristine -induced cytotoxicity against human KBV cells assessed as fold change in vincristine IC50 at 5 uM incubated for 72 hrs by MTT assay relative to vincristine alone; format: functional
[7] = Reversal of multi-drug resistance in human KBV cells assessed as paclitaxel induced cytotoxicity by measuring cell survival at 10 uM measured after 72 hrs by MTT assay relative to control; format: functional
[8] = Cytotoxicity against human KBV cells assessed as paclitaxel induced cytotoxicity by measuring cell survival at 10 uM measured after 72 hrs by MTT assay relative to control; format: functional
[9] = Cytotoxicity against human KBV cells incubated for 72 hrs by MTT assay; format: functional, cell-based
[10] = Aqueous solubility of the compound in deionized water measured after 24 hrs by UV-vis spectrophotometric analysis; format: physicochemical; details: buffer
[11] = tested on: KBV; experiment: Anti-tumor activity against human KBV cells xenografted in male BALB/c nude mouse assessed as reduction in tumor volume at 30 mg/kg administered every days for 18 days; format: functional, organism-based; details: time 18.0 day

SMILES	Activity [7] [%]	Activity [8] [%]	further results
O[C@@H](COc1cccc2ncccc12)CN1CCN([C@@H]2c3ccccc3[C@@H]3[C@H](c4ccccc42)C3(F)F)CC1 [ZOSUQUIDAR]	–	–	fold change (FC) [1]: 9.01; fold change (FC) [2]: 449.19; fold change (FC) [3]: 45.38; fold change (FC) [4]: 133.98; fold change (FC) [5]: 721.86; fold change (FC) [6]: 33.85
CC1(C)CC[C@]2(C(=O)NCCNC(=O)CNC(=O)CN)CC[C@]3(C)C(=CC[C@@H]4[C@@]5(C)Cc6nccnc6[C@@](C)(CO)[C@@H]5CC[C@]43C)[C@@H]2C1	87.67	91.41	–
CC1(C)CC[C@]2(C(=O)OCC(=O)NCc3cnccn3)CC[C@]3(C)C(=CC[C@@H]4[C@@]5(C)Cc6nccnc6[C@@](C)(CO)[C@@H]5CC[C@]43C)[C@@H]2C1	40.44	97.94	–
CC1(C)CC[C@]2(C(=O)NCCCC(=O)OCCOCCOCCO)CC[C@]3(C)C(=CC[C@@H]4[C@@]5(C)Cc6nccnc6[C@@](C)(CO)[C@@H]5CC[C@]43C)[C@@H]2C1	63.88	96.02	–
CC1(C)CC[C@]2(C(=O)OCC(=O)NCc3ncccn3)CC[C@]3(C)C(=CC[C@@H]4[C@@]5(C)Cc6nccnc6[C@@](C)(CO)[C@@H]5CC[C@]43C)[C@@H]2C1	39.38	90.35	–
C[C@H](N)C(=O)N[C@@H](C)C(=O)NCCNC(=O)[C@]12CCC(C)(C)C[C@H]1C1=CC[C@@H]3[C@@]4(C)Cc5nccnc5[C@@](C)(CO)[C@@H]4CC[C@@]3(C)[C@]1(C)CC2	28.53	92.74	–
COC(=O)[C@H](CCSC)NC(=O)COC(=O)[C@]12CCC(C)(C)C[C@H]1C1=CC[C@@H]3[C@@]4(C)Cc5nccnc5[C@@](C)(CO)[C@@H]4CC[C@@]3(C)[C@]1(C)CC2	37.17	79.95	–
CC1(C)CC[C@]2(C(=O)NCCCC(=O)OCCOCCOCCOCCOCCO)CC[C@]3(C)C(=CC[C@@H]4[C@@]5(C)Cc6nccnc6[C@@](C)(CO)[C@@H]5CC[C@]43C)[C@@H]2C1	27.02	94.86	–
CC(C)[C@H](N)C(=O)NCC(=O)NCCNC(=O)[C@]12CCC(C)(C)C[C@H]1C1=CC[C@@H]3[C@@]4(C)Cc5nccnc5[C@@](C)(CO)[C@@H]4CC[C@@]3(C)[C@]1(C)CC2	27.74	97.4	–
CC1(C)CC[C@]2(C(=O)NCC(=O)OCCOCCOCCOCCO)CC[C@]3(C)C(=CC[C@@H]4[C@@]5(C)Cc6nccnc6[C@@](C)(CO)[C@@H]5CC[C@]43C)[C@@H]2C1	83.46	90.96	–
CC1(C)CC[C@]2(C(=O)NCC(=O)OCCOCCOCCO)CC[C@]3(C)C(=CC[C@@H]4[C@@]5(C)Cc6nccnc6[C@@](C)(CO)[C@@H]5CC[C@]43C)[C@@H]2C1	67.88	86.82	–
CC1(C)CC[C@]2(C(=O)OCC(=O)OCc3cnccn3)CC[C@]3(C)C(=CC[C@@H]4[C@@]5(C)Cc6nccnc6[C@@](C)(CO)[C@@H]5CC[C@]43C)[C@@H]2C1	53.78	121.45	–
CC1(C)CC[C@]2(C(=O)OCC(=O)NCc3cccs3)CC[C@]3(C)C(=CC[C@@H]4[C@@]5(C)Cc6nccnc6[C@@](C)(CO)[C@@H]5CC[C@]43C)[C@@H]2C1	25.86	54.97	–
CC1(C)CC[C@]2(C(=O)NCCCC(=O)OCCOCCOCCOCCO)CC[C@]3(C)C(=CC[C@@H]4[C@@]5(C)Cc6nccnc6[C@@](C)(CO)[C@@H]5CC[C@]43C)[C@@H]2C1	28.96	93.67	–
CC[C@]1(O)C[C@H]2CN(CCc3c([nH]c4ccccc34)[C@@](C(=O)OC)(c3cc4c(cc3OC)N(C=O)[C@H]3[C@@](O)(C(=O)OC)[C@H](OC(C)=O)[C@]5(CC)C=CCN6CC[C@]43[C@@H]65)C2)C1 [VINCRISTINE]	–	–	IC50 [9]: 469 nM
COC(=O)CC[C@H](NC(=O)COC(=O)[C@]12CCC(C)(C)C[C@H]1C1=CC[C@@H]3[C@@]4(C)Cc5nccnc5[C@@](C)(CO)[C@@H]4CC[C@@]3(C)[C@]1(C)CC2)C(=O)OC	40.07	92.53	–
CC1(C)CC[C@]2(C(=O)OCC(=O)NCC3CCOCC3)CC[C@]3(C)C(=CC[C@@H]4[C@@]5(C)Cc6nccnc6[C@@](C)(CO)[C@@H]5CC[C@]43C)[C@@H]2C1	30.34	78.91	–

SMILES	Activity [7] [%]	Activity [8] [%]	further results
CC1(C)CC[C@]2(C(=O)NCCCC(=O)OCCOCCO)CC[C@]3(C)C(=CC[C@@H]4[C@@]5(C)Cc6nccnc6[C@@](C)(CO)[C@@H]5CC[C@]43C)[C@@H]2C1	70.13	91.43	–
CC1(C)CC[C@]2(C(=O)OCc3ccccc3)CC[C@]3(C)C(=CC[C@@H]4[C@@]5(C)Cc6nccnc6[C@@](C)(CO)[C@@H]5CC[C@]43C)[C@@H]2C1	18.17	–	solubility [10]: soluble
CC1(C)CC[C@]2(C(=O)NCC(=O)OCCOCCOCCOCCOCCO)CC[C@]3(C)C(=CC[C@@H]4[C@@]5(C)Cc6nccnc6[C@@](C)(CO)[C@@H]5CC[C@]43C)[C@@H]2C1	78.98	77.18	–
CC1(C)CC[C@]2(C(=O)OCC(=O)OCc3nccs3)CC[C@]3(C)C(=CC[C@@H]4[C@@]5(C)Cc6nccnc6[C@@](C)(CO)[C@@H]5CC[C@]43C)[C@@H]2C1	43.84	105.92	–
CC1(C)CC[C@]2(C(=O)OCC(=O)OCC3CCO3)CC[C@]3(C)C(=CC[C@@H]4[C@@]5(C)Cc6nccnc6[C@@](C)(CO)[C@@H]5CC[C@]43C)[C@@H]2C1 (stereo partly specified)	48.06	106.82	–
CC1(C)CC[C@]2(C(=O)NCC(=O)OCCOCCO)CC[C@]3(C)C(=CC[C@@H]4[C@@]5(C)Cc6nccnc6[C@@](C)(CO)[C@@H]5CC[C@]43C)[C@@H]2C1	84.84	94.99	–
CC1(C)CC[C@]2(C(=O)OCC(=O)OCc3ncco3)CC[C@]3(C)C(=CC[C@@H]4[C@@]5(C)Cc6nccnc6[C@@](C)(CO)[C@@H]5CC[C@]43C)[C@@H]2C1	26.03	62.38	–
CC(C)[C@H](N)C(=O)N[C@H](C(=O)NCCNC(=O)[C@]12CCC(C)(C)C[C@H]1C1=CC[C@@H]3[C@@]4(C)Cc5nccnc5[C@@](C)(CO)[C@@H]4CC[C@@]3(C)[C@]1(C)CC2)C(C)C	89.43	87.47	–
CC1(C)CC[C@]2(C(=O)OCC(=O)NCc3ccccn3)CC[C@]3(C)C(=CC[C@@H]4[C@@]5(C)Cc6nccnc6[C@@](C)(CO)[C@@H]5CC[C@]43C)[C@@H]2C1	33.22	82.98	–
COC(=O)C[C@H](NC(=O)COC(=O)[C@]12CCC(C)(C)C[C@H]1C1=CC[C@@H]3[C@@]4(C)Cc5nccnc5[C@@](C)(CO)[C@@H]4CC[C@@]3(C)[C@]1(C)CC2)C(=O)OC	35.97	79.2	–
CC(=O)O[C@H]1C(=O)[C@@]2(C)[C@H]([C@H](OC(=O)c3ccccc3)[C@]3(O)C[C@H](OC(=O)[C@H](O)[C@@H](NC(=O)c4ccccc4)c4ccccc4)C(C)=C1C3(C)C)[C@]1(OC(C)=O)CO[C@@H]1C[C@@H]2O [PACLITAXEL]	–	106	Activity [11]: inactive; IC50 [9]: 701 nM
COc1cc2c(cc1OC)CN(CCc1ccc(NC(=O)c3cc(OC)c(OC)cc3NC(=O)c3cnc4ccccc4c3)cc1)CC2	–	–	fold change (FC) [1]: 16.78; fold change (FC) [2]: 1523.35; fold change (FC) [3]: 391.47; fold change (FC) [4]: 824.4; fold change (FC) [5]: 744.78; fold change (FC) [6]: 30.99
CC(C)C[C@H](N)C(=O)NCC(=O)NCCNC(=O)[C@]12CCC(C)(C)C[C@H]1C1=CC[C@@H]3[C@@]4(C)Cc5nccnc5[C@@](C)(CO)[C@@H]4CC[C@@]3(C)[C@]1(C)CC2	96.68	98.91	–
COC(=O)[C@H](Cc1ccccc1)NC(=O)COC(=O)[C@]12CCC(C)(C)C[C@H]1C1=CC[C@@H]3[C@@]4(C)Cc5nccnc5[C@@](C)(CO)[C@@H]4CC[C@@]3(C)[C@]1(C)CC2	38.69	90.77	–
CC1(C)CC[C@]2(C(=O)OCC(=O)OCc3ccncc3)CC[C@]3(C)C(=CC[C@@H]4[C@@]5(C)Cc6nccnc6[C@@](C)(CO)[C@@H]5CC[C@]43C)[C@@H]2C1	46.31	109.15	–
COC(=O)[C@H](CC(C)C)NC(=O)COC(=O)[C@]12CCC(C)(C)C[C@H]1C1=CC[C@@H]3[C@@]4(C)Cc5nccnc5[C@@](C)(CO)[C@@H]4CC[C@@]3(C)[C@]1(C)CC2	38.41	85.1	–
CC1(C)CC[C@]2(C(=O)NCC(=O)OCCOCCOCCOCCOCCOCCOCCOCCOCCO)CC[C@]3(C)C(=CC[C@@H]4[C@@]5(C)Cc6nccnc6[C@@](C)(CO)[C@@H]5CC[C@]43C)[C@@H]2C1	74.02	79.04	–
